Test: Inhibition of HCV RNA replication in Huh5-2 cells after 48 hrs

EC50	Compound
2.2 µM	O=C(O)c1ccc2c(c1)nc(-c1ccc(OC(c3ccc(F)cc3)c3ccc(F)cc3)cc1)n2C1CCCCC1 [2-(4-(bis(4-fluorophenyl)methoxy)phenyl)-1-cyclohexyl-1H-benzo[d]imidazole-5-carboxylic acid]
2.8 µM	O=C(O)c1ccc2c(c1)nc(-c1ccc(OC(c3cccc(F)c3)c3cccc(F)c3)cc1)n2C1CCCCC1 [2-(4-(bis(3-fluorophenyl)methoxy)phenyl)-1-cyclohexyl-1H-benzo[d]imidazole-5-carboxylic acid]
1.1 µM	O=C(O)c1ccc2c(c1)nc(-c1ccc(OC(c3ccccc3)c3cccnc3)cc1F)n2C1CCCCC1 (stereo not given) [1-Cyclohexyl-2-[2-fluoro-4-(phenyl-pyridin-3-yl-methoxy)-phenyl]-1H-benzoimidazole-5-carboxylic acid]
1.9 µM	O=C(O)c1ccc2c(c1)nc(-c1ccc(OC(c3ccccc3)c3ccccc3)cc1F)n2C1CCCCC1 [2-(4-(benzhydryloxy)-2-fluorophenyl)-1-cyclohexyl-1H-benzo[d]imidazole-5-carboxylic acid]
2.6 µM	O=C(O)c1ccc2c(c1)nc(-c1ccc(OC(c3cccnc3)c3cccnc3)cc1F)n2C1CCCCC1 [1-Cyclohexyl-2-[4-(di-pyridin-3-yl-methoxy)-2-fluoro-phenyl]-1H-benzoimidazole-5-carboxylic acid]
1.6 µM	O=C(O)c1ccc2c(c1)nc(-c1ccc(OC(c3ccc(F)cc3)c3ccc(F)cc3)cc1F)n2C1CCCCC1 [2-(4-(bis(4-fluorophenyl)methoxy)-2-fluorophenyl)-1-cyclohexyl-1H-benzo[d]imidazole-5-carboxylic acid]
3.7 µM	Cc1ccc(C(Oc2ccc(-c3nc4cc(C(=O)O)ccc4n3C3CCCCC3)cc2)c2ccc(C)cc2)cc1 [1-cyclohexyl-2-(4-(dip-tolylmethoxy)phenyl)-1H-benzo[d]imidazole-5-carboxylic acid]
2.6 µM	O=C(O)c1ccc2c(c1)nc(-c1ccc(OC(c3ccccc3)c3ccccc3)cc1)n2C1CCCCC1 [2-(4-(benzhydryloxy)phenyl)-1-cyclohexyl-1H-benzo[d]imidazole-5-carboxylic acid]
1.2 µM	CN(C)C(=O)c1ccc(C(Oc2ccc(-c3nc4cc(C(=O)O)ccc4n3C3CCCCC3)c(F)c2)c2ccc(C(=O)N(C)C)cc2)cc1 [2-{4-[Bis-(4-dimethylcarbamoyl-phenyl)-methoxy]-2-fluoro-phenyl}-1-cyclohexyl-1H-benzoimidazole-5-carboxylic acid]
3.6 µM	O=C(O)c1ccc2c(c1)nc(-c1ccc(OC(c3ccc(Cl)cc3)c3ccc(Cl)cc3)cc1)n2C1CCCCC1 [2-(4-(bis(4-chlorophenyl)methoxy)phenyl)-1-cyclohexyl-1H-benzo[d]imidazole-5-carboxylic acid]

— BindingDB's records for doi:10.1016/j.bmcl.2006.01.032 (Central Pharmaceutical Research Institute, 2006)
